Measurements: ChEMBL document CHEMBL6092188, “Structure-Guided Conformational Restriction Leading to High-Affinity, Selective, and Cell-Active Tetrahydroisoquinoline-Based Noncovalent Keap1-Nrf2 Inhibitors” (J Med Chem, 2024)

Assays:
[1] = Solubility of the compound in PBS buffer and 0.5% DMSO at 200 uM by LC-MS analysis; format: physicochemical
[2] = Metabolic stability in male CD-1 mouse liver microsomes assessed as parent compound remaining measured after 30 mins in presence of NADPH regenerating system by LC-MS analysis; format: ADME, Microsome; settings: read-out: Stability
[3] = in vitro; settings: male, CD-1, mouse, liver microsomes
[4] = Metabolic stability in human liver microsomes assessed as parent compound remaining measured after 30 mins in presence of NADPH regenerating system by LC-MS analysis; format: ADME, Microsome; settings: read-out: Stability
[5] = Metabolic stability in human liver microsomes assessed as half life measured after 1 hr in presence of NADPH regenerating system by LC-MS analysis; format: ADME, Microsome
[6] = Metabolic stability in male Sprague-Dawley rat liver microsomes assessed as parent compound remaining measured after 30 mins in presence of NADPH regenerating system by LC-MS analysis; format: ADME, Microsome; settings: read-out: Stability
[7] = Permeability of the compound in PBS buffer at pH 7.4 at 200 uM measured after 5 hrs by PAMPA assay; format: ADME; settings: for Papp at 5 h, 200 µM: PAMPA, pH 7.4, read-out: permeability
[8] = in vitro; settings: male, Sprague-Dawley, rat, liver microsomes

| solubility [1] | remaining at 0.5 h [2] [%] | half-life at 1 h [3] [min] | remaining at 0.5 h [4] [%] | half-life [5] [min] | remaining at 0.5 h [6] [%] | Papp at 5 h, 200 µM [7] [×10⁻⁶ cm/s] | half-life at 1 h [8] [min] | permeability ([7]; pampa, pH 7.4, 5 h, 200 µM) | SMILES |
| --- | --- | --- | --- | --- | --- | --- | --- | --- | --- |
| soluble | – | – | – | – | – | – | – | – | COc1cccc(S(=O)(=O)NCc2cccc(C(NC(=O)c3cccc4c3-c3ccccc3C4=O)C(=O)O)c2)c1 (centres undefined) |
| – | < 3 | 3.6 | – | – | – | – | – | – | COc1ccc(S(=O)(=O)NCc2cccc(C(NC(=O)c3cccc4c3-c3ccccc3C4=O)C(=O)O)c2)cc1 (centres undefined) |
| soluble | – | – | – | – | – | – | – | – | CN(C)c1cccc(S(=O)(=O)NCc2cccc([C@@H](NC(=O)c3cccc4c3-c3ccccc3C4=O)C(=O)O)c2)c1 |
| – | 39 | 25 | – | – | – | – | – | – | CCOc1ccc(S(=O)(=O)N2CCc3ccc(C(NC(=O)c4cccc5c4-c4cccnc4C5=O)C(=O)O)cc3C2)cc1C#N (centres undefined) |
| – | < 3 | 5.4 | – | – | – | – | – | – | Cn1c2ccccc2c2c(C(=O)NC(C(=O)O)c3ccc4c(c3)CN(S(=O)(=O)c3cccc(Br)c3)CC4)cccc21 (centres undefined) |
| – | 22 | 15 | 89 | 200 | 92 | 2.2 | 400 | – | Cn1c2ccccc2c2c(C(=O)NC(C(=O)O)c3ccc4c(c3)CN(S(=O)(=O)c3cccc(C#N)c3)CC4)cccc21 (centres undefined) |
| – | 8 | 8 | 66 | 47 | 86 | 4.7 | 280 | – | CCOc1ccc(S(=O)(=O)N2CCc3ccc(C(NC(=O)c4cccc5c4c4ccccc4n5C)C(=O)O)cc3C2)cc1C#N (centres undefined) |
| – | < 3 | 3.2 | < 3 | 4.5 | 77 | – | 78 | – | N#Cc1cc(S(=O)(=O)N2CCc3ccc(C(NC(=O)c4cccc5c4-c4ccccc4C5=O)C(=O)O)cc3C2)ccc1F (centres undefined) |
| – | 0 | 3.3 | – | – | – | – | – | – | O=C(NC(C(=O)O)c1ccc2c(c1)CN(S(=O)(=O)c1cccc(Br)c1)CC2)c1cccc2c1-c1ccccc1C2=O (centres undefined) |
| – | 16 | 13 | 64 | 51 | 86 | 4.7 | 240 | – | Cn1c2ccccc2c2c(C(=O)NC(C(=O)O)c3ccc4c(c3)CN(S(=O)(=O)c3ccc(F)c(C#N)c3)CC4)cccc21 (centres undefined) |
| soluble | < 3 | 3.8 | – | – | – | – | – | Permeable | COc1ccc(S(=O)(=O)N2CCc3ccc(C(NC(=O)c4cccc5c4-c4ccccc4C5=O)C(=O)O)cc3C2)cc1 (centres undefined) |
| – | 19 | 12 | – | – | – | – | – | – | CCOc1ccc(S(=O)(=O)N2CCc3ccc(C(NC(=O)c4cccc5c4-c4ccccc4C5F)C(=O)O)cc3C2)cc1C#N (centres undefined) |
| – | 3 | 3.8 | < 3 | 5.1 | 78 | – | 99 | – | CCOc1ccc(S(=O)(=O)N2CCc3ccc(C(NC(=O)c4cccc5c4-c4ccccc4C5=O)C(=O)O)cc3C2)cc1C#N (centres undefined) |
| – | 7.5 | 6.1 | < 3 | 6.1 | 83 | – | 130 | – | N#Cc1cccc(S(=O)(=O)N2CCc3ccc(C(NC(=O)c4cccc5c4-c4ccccc4C5=O)C(=O)O)cc3C2)c1 (centres undefined) |
| – | 3.5 | 4.5 | – | – | – | – | – | – | COc1ccc(S(=O)(=O)N2CCc3ccc(C(NC(=O)c4cccc5c4-c4ccccc4C5=O)C(=O)O)cc3C2)cc1C#N (centres undefined) |
| – | < 3 | 4.7 | – | – | – | – | – | – | CCOc1ccc(S(=O)(=O)N2CCc3ccc(C(NC(=O)c4cccc5c4-c4ccccc4C5)C(=O)O)cc3C2)cc1C#N (centres undefined) |
